{"source": "patent US7968526B2", "about": "“Antisense oligonucleotides directed to ribonucleotide reductase R2 and uses thereof in the treatment of cancer” (Lorus Therapeutics Inc., priority 2003, dated 2011)", "key": {"[1]": {"system": "C8161 human melanoma cells", "test": "Experimental metastasis of C8161 cells treated ex vivo, lung nodules in CD-1 nude mice (4.2)", "design": "species or system human cells in mice", "method": "• 4.1 Experimental metastasis of mouse fibrosarcoma (R3) cells treated with different antisense oligonucleotides in a syngenetic model was estimated as follows. Aliquots of R3 cell suspension were seeded into 100 mm tissue culture dishes at a density of 2×10^6 and incubated overnight at 37° C. in α-MEM medium supplemented with 10% FBS. Cells were washed once in 10 ml of PBS and treated with 0.2 μM of SEQ ID NO: 1 in the presence of cationic lipid (Lipofectin reagent, final concentration, 10 μg/ml, Gibco BRL) for 4 hr. Cells were treated with either saline alone (C) or lipofectin alone (RE) as controls. Oligonucleotide was removed by washing the cells once with PBS and the cells were trypsinized. Cells were then collected by centrifugation, and approximately 1×10^5 cells suspended in 0.2 ml of PBS were injected into the tail veins of 10 week-old C3H female mice. Estimates of the number of lung tumours were made 20 days later, after excised lungs from individual mice were stained with picric acid dye solution (75% picric acid, 20% formaldehyde, 5% glacial acetic acid). Bars represent mean number of tumour nodules in lungs obtained from 4 to 5 animals per experimental group. […] Aliquots of C8161 cell suspension were seeded into 100 mm tissue culture dishes at a density of 2×10^6 and incubated overnight at 37° C. in α-MEM medium supplemented with 10% FBS. […]"}, "[2]": {"system": "NCI-H460 human lung cancer cells", "test": "NCI-H460 lung tumour growth in CD-1 nude mice (3.5)", "assay_type": "in vivo, human cells in mice", "method": "(§1) Treatments lasted for 14 days thereafter. Antitumour activities were estimated by the inhibition of tumour volume, which was measured with a caliper on four different occasions over the treatment period. Each point represents mean tumour volume calculated from 5 animals per experimental group. […] Control animals (control) received saline alone for the same period. At the end of the treatments, the animals were sacrificed, tumours were excised and their weights were measured. Each bar represents mean tumour weight calculated from 6 animals per experimental group. […] Treatments lasted for 24 days thereafter. Antitumour activities were estimated by the inhibition of tumour volume, which was measured with a caliper at two-day intervals over the treatment period. Each point represents mean tumour volume calculated from 4 animals per experimental group. […] Treatments lasted for 24 days thereafter. Antitumour activities were estimated by the inhibition of tumour volume, which was measured with a caliper at two-day intervals over the treatment period. Each point represents mean tumour volume calculated from 4 animals per experimental group. […] Each point represents mean tumour volume calculated from 5 animals per experimental group. […] Antitumour activities were estimated by the inhibition of tumour volume, which was measured with a caliper on four different occasions over 16-day period. Each point represents mean tumour volume calculated from 5 animals per experimental group. […] Antitumour activities were estimated by the inhibition of tumour volume, which was measured with a caliper at two-day intervals over the treatment period. Each point represents mean tumour volume calculated from 5 animals per experimental group. […] Antitumour activities were estimated by the inhibition of tumour volume, which was measured with a caliper at various time intervals over the span of 30 days. Each point represents mean tumour volume calculated from 6 animals per experimental group. […] Antitumour activities were estimated by the inhibition of tumour volume, which was measured with a caliper. […]"}, "[3]": {"system": "SU.86.86 human pancreatic cancer cells", "test": "SU.86.86 pancreatic tumour growth in CD-1 nude mice (3.6)", "assay_type": "in vivo, human cells in mice", "method": "as §1"}}, "note": "“Also recorded” adds a separate entry of the source."}
{"substance": "5′-GGCTAAATCGCTCCACCAAG-3′ (all phosphorothioate, sugars by position and methylation of C not given here) [SEQ ID NO: 1, fully phosphorothioated antisense oligonucleotide that hybridizes to the coding region of R2 mRNA]", "values": [{"measurement": "Formation of lung colonies / nodules", "setting": "[1]; C8161 cells treated with 0.2 μM + Lipofectin for 4 hr before i.v. injection into CD-1 nude mice", "result": "significantly reduced the formation of lung colonies; also recorded: significantly reduces the extent of lung nodule formation"}, {"measurement": "Decrease in the number of tumour metastases to lungs", "setting": "[1]; Human Melanoma (ex vivo and in vivo)", "result": "Decrease by approximately 95% in the number"}, {"measurement": "Inhibition of tumour weight", "setting": "[2]; Human Lung Carcinoma", "result": "~70", "unit": "%"}, {"measurement": "Inhibition of tumour size", "setting": "[2]; Human Lung Carcinoma in CD-1 Nude mice, Days 14 to 19 after tumour implantation", "result": "Inhibition of tumour size by approximately 85%"}, {"measurement": "Inhibitory effect on tumour growth (tumour volume, FIG. 18D)", "setting": "[2]; NCI-H460, CD-1 nude mice, 10 mg/kg i.v. every other day, 14 days", "result": "strong inhibitory effects on the growth of human lung carcinoma"}, {"measurement": "Inhibition of tumour weight", "setting": "[3]; Human Pancreatic Adenocarcinoma", "result": "~65", "unit": "%"}, {"measurement": "Inhibition of tumour growth", "setting": "[3]; Human Pancreatic Adenocarcinoma, up to 39 days after tumour implantation", "result": "Complete inhibition of tumour growth up to 39"}, {"measurement": "Inhibitory effect on tumour growth (tumour volume, FIG. 19)", "setting": "[3]; SU.86.86, CD-1 nude mice, 10 mg/kg i.v. every other day, 34 days, two batches", "result": "strong inhibitory effects on the growth of human pancreatic carcinoma"}]}
